Results as given in patent US20120129843A1, “PYRIDYL-THIAZOLYL INHIBITORS OF PRO-MATRIX METALLOPROTEINASE ACTIVATION” (priority 2010, published 2012).
Structures can show the parent of a compound that is named as a salt.

Assays:
[1] = biological target: T1, full-length proMMP9(1-707) (SEQ ID NO:1), activation by catalytic MMP3 (Homo sapiens, UniProt P14780, R574P); assay: proMMP9/MMP3 P126 Activation Assay; format: biochemical
T1 construct: made in house; host or cells: HEK293 (proMMP9, secreted); E. coli (MMP3)
Experimental: proMMP9/MMP3 P126 Activation Assay
The reaction volume was 50 μL. […] Reactivity of residual MMP3 towards P-126 substrate was minimal under these conditions.

[2] = biological target: T2, proMMP9(67-444;ΔFnII) (SEQ ID NO:5) (Homo sapiens, UniProt P14780, DEL216-390); assay: ThermoFluor binding assay with proMMP9(67-444;ΔFnII)
T2 construct: start methionine (N); made in house; host or cells: E. coli BL21(DE3) RIL
T2 sequence (P14780 with tags, fused parts or gaps DEL216-390): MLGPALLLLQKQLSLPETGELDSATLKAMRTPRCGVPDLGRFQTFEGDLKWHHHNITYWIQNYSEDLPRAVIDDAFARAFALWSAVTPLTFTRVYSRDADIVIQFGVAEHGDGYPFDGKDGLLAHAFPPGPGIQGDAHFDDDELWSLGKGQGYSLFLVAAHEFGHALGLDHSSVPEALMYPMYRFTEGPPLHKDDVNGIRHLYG
Experimental: The ThermoFluor® (TF) assay is a 384-well plate-based binding assay that measures thermal stability of proteins (Biomol Screen 2001, 6, 429-40; Biochemistry 2005, 44, 5258-66). The experiments were carried out using instruments available from Johnson & Johnson Pharmaceutical Research & Development, LLC. TF dye used in all experiments was […] (1,8-ANS) (Invitrogen: A-47).
Compounds were arranged in a pre-dispensed plate (Greiner Bio-one: 781280), wherein compounds were serially diluted in 100% DMSO across 11 columns within a series. Columns 12 and 24 were used as DMSO reference and contained no compound. For multiple compound concentration-response experiments, the compound aliquots ([…]) were robotically predispensed directly into black 384-well polypropylene PCR microplates (Abgene: TF-0384/k) using a Cartesian Hummingbird liquid handler (DigiLab, Holliston, Mass.). Following compound dispense, protein and dye solutions were added to achieve the final assay volume of 3 μL. The assay solutions were overlayed with 1 μL of silicone oil (Fluka, type DC 200: 85411) to prevent evaporation.
Assay plates were robotically loaded onto a thermostatically controlled PCR-type thermal block and then heated from 40 to 90° C. at a ramp-rate of 1° C./min for all experiments. Fluorescence was measured by continuous illumination with UV light (Hamamatsu LC6) supplied via fiber optics and filtered through a band-pass filter (380-400 nm; >60D cutoff). Fluorescence emission of the entire 384-well plate was detected by measuring light intensity using a CCD camera (Sensys, Roper Scientific) filtered to detect 500±25 nm, resulting in simultaneous and independent readings of all 384 wells. A single image with 20-sec exposure time was collected at each temperature, and the sum of the pixel intensity in a given area of the assay plate was recorded vs temperature and fit to standard equations to yield the Tm (J Biomol Screen 2001, 6, 429-40).
Thermodynamic parameters necessary for fitting compound binding for each proMMP were estimated by differential scanning calorimetry (DSC) and from ThermoFluor® data. The heat capacity of unfolding for each protein was estimated from the molecular weight and from ThermoFluor® dosing data.
ThermoFluor® with proMMP9(67-444;ΔFnII) (SEQ ID NO:5)
The protein sample preparations had to include a desalting buffer exchange step via a PD-10 gravity column (GE Healthcare). The desalting buffer exchange was performed prior to diluting the protein to the final assay concentration of 3.5 μM proMMP9(67-444;ΔFnII) (SEQ ID NO:5). The concentration of proMMP9(67-444;ΔFnII) (SEQ ID NO:5) was determined spectrophotometrically based on a calculated extinction coefficient of ε280=33900 M^−1cm^−1, a calculated molecular weight of 22.6 kDa, and calculated pI of 5.20. ThermoFluor® reference conditions were defined as follows: 80 μg/mL (3.5 μM) proMMP9(67-444;ΔFnII) (SEQ ID NO:5), 50 μM 1,8-ANS, pH 7.0 Buffer (50 mM HEPES pH 7.0, 100 mM NaCl, 0.001% Tween-20, 2.5 mM MgCl2, 300 μM CaCl2). The thermodynamic parameters for proMMP9(67-444;ΔFnII) (SEQ ID NO:5) are as follows: Tm (° C.)=63 (+/−0.1), ΔUH(Tm) (cal mol^−1)=105000(+/−5000), ΔUS(Tm) (cal mol^−1 K^−1)=[…], ΔUCp (cal mol^−1 K^−1)=2000.

[3] = biological target: T3, proMMP9(20-445;ΔFnII) (SEQ ID NO:6) (Homo sapiens, UniProt P14780, DEL216-390); assay: ThermoFluor binding assay with proMMP9(20-445;ΔFnII)
T3 construct: start methionine (N); made in house; host or cells: E. coli BL21(DE3) RIL
T3 sequence (P14780 with tags, fused parts or gaps DEL216-390): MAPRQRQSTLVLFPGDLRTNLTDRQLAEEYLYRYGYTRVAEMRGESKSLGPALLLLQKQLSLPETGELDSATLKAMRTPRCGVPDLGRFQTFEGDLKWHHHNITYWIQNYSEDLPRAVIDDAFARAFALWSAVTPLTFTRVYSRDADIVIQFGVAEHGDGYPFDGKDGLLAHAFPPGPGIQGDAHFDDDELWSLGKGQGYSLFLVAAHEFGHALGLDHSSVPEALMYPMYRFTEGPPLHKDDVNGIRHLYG
In short: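 Thermal-shift binding using 2.8 μM proMMP9(20-445;ΔFnII) with 50 μM 1,8-ANS in 50 mM HEPES pH 7.0, 100 mM NaCl, 0.001% Tween-20, 2.5 mM MgCl2, 300 μM CaCl2. Compound serially diluted; heated 40–90 °C at 1 °C/min, fluorescence 500 nm. Tm shifts fitted using DSC/ThermoFluor-derived thermodynamic parameters.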

T1 sequence (P14780 20-707 R574P): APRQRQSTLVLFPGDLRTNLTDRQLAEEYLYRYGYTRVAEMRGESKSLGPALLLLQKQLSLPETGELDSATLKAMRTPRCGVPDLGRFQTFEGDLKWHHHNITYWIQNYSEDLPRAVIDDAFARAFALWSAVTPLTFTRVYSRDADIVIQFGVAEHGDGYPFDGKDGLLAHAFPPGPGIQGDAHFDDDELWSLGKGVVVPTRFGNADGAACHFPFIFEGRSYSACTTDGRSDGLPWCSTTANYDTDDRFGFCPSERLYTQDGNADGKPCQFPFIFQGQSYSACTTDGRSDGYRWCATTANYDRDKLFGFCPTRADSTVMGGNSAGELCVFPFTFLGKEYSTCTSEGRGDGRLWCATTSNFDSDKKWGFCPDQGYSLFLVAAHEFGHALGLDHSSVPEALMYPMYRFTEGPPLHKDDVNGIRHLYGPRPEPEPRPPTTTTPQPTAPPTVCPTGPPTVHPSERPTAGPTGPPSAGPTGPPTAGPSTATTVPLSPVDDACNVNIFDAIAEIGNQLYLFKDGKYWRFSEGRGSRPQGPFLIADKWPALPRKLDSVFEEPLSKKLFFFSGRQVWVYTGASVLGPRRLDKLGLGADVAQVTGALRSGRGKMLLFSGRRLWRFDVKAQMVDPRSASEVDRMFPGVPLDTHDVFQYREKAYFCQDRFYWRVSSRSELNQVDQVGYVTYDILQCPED

| IC50 [1] | Kd [2] | Kd [3] | Structure (SMILES) |
| --- | --- | --- | --- |
| 0.087 µM | 0.17 µM | 0.07 µM | CC(C)Oc1ccc(S(N)(=O)=O)cc1Nc1nc(-c2ccc(N3CCN(C(C)C)CC3)nc2)cs1 [Example 39, 4-Isopropoxy-3-{4-[6-(4-isopropyl-piperazin-1-yl)-pyridin-3-yl]-thiazol-2-ylamino}-benzenesulfonamide.TFA] |
| 0.087 µM | 0.33 µM | 0.044 µM | CC(C)Oc1ccc(S(N)(=O)=O)cc1Nc1nc(-c2ccc(N3CCCN(C)CC3)nc2)cs1 [Example 40, 4-Isopropoxy-3-{4-[6-(4-methyl-[1,4]diazepan-1-yl)-pyridin-3-yl]-thiazol-2-ylamino}-benzenesulfonamideamide.TFA] |
| 0.059 µM | 0.22 µM | 0.051 µM | CC(C)Oc1ccc(S(N)(=O)=O)cc1Nc1nc(-c2ccc(N3CCC(N(C)C)CC3)nc2)cs1 [Example 41, 3-[4-(4-Dimethylamino-3,4,5,6-tetrahydro-2H-[1,2′]bipyridinyl-5′-yl)-thiazol-2-ylamino]-4-isopropoxy-benzenesulfonamide.TFA] |
| 0.15 µM | 0.68 µM | 0.13 µM | CC(C)Oc1ccc(S(N)(=O)=O)cc1Nc1nc(-c2ccc(NCCN(C)C)nc2)cs1 [Example 42, 3-(4-{6-[(2-Dimethylamino-ethyl)-amino]-pyridin-3-yl}-thiazol-2-ylamino)-4-isopropoxy-benzenesulfonamide.TFA] |
| 0.2 µM | 1.7 µM | 0.12 µM | CC(C)Oc1ccc(S(N)(=O)=O)cc1Nc1nc(-c2ccc(N(C)CCN(C)C)nc2)cs1 [Example 43, 3-(4-{6-[(2-Dimethylamino-ethyl)-methyl-amino]-pyridin-3-yl}-thiazol-2-ylamino)-4-isopropoxy-benzenesulfonamide.TFA] |
| 0.073 µM | 0.13 µM | 0.048 µM | CC(C)Oc1ccc(S(N)(=O)=O)cc1Nc1nc(-c2ccc(N3CCNCC3)nc2)cs1 [Example 44, 4-Isopropoxy-3-[4-(6-piperazin-1-yl-pyridin-3-yl)-thiazol-2-ylamino]-benzenesulfonamide.TFA] |
| 0.37 µM | 3.7 µM | 0.47 µM | CC(C)Oc1ccc(S(N)(=O)=O)cc1Nc1nc(-c2ccc(C(=O)O)nc2)cs1 [Example 45, 5-[2-(2-Isopropoxy-5-sulfamoyl-phenylamino)-thiazol-4-yl]-pyridine-2-carboxylic acid.HCl] |
| 1.3 µM | 6.6 µM | 1.3 µM | CC(C)Oc1ccc(S(N)(=O)=O)cc1Nc1nc(-c2ccc(C(=O)N3CCN(C)CC3)nc2)cs1 [Example 46, 4-Isopropoxy-3-{4-[6-(4-methyl-piperazine-1-carbonyl)-pyridin-3-yl]-thiazol-2-ylamino}-benzenesulfonamide.TFA] |
| 0.98 µM | 1.5 µM | 0.9 µM | CCN1CCN(C(=O)c2ccc(-c3csc(Nc4cc(S(N)(=O)=O)ccc4OC(C)C)n3)cn2)CC1 [Example 47, 4-Isopropoxy-3-{4-[6-(4-ethyl-piperazine-1-carbonyl)-pyridin-3-yl]-thiazol-2-ylamino}-benzenesulfonamide.TFA] |
| 1.1 µM | 4.1 µM | 2.3 µM | CC(C)Oc1ccc(S(N)(=O)=O)cc1Nc1nc(-c2ccc(C(=O)N3CCC(N(C)C)CC3)nc2)cs1 [Example 48, 3-{4-[6-(4-Dimethylamino-piperidine-1-carbonyl)-pyridin-3-yl]-thiazol-2-ylamino}-4-isopropoxy-benzenesulfonamide.TFA] |
| 1 µM | 2 µM | 0.83 µM | CC(C)Oc1ccc(S(N)(=O)=O)cc1Nc1nc(-c2ccc(C(=O)N3CCCN(C)CC3)nc2)cs1 [Example 49, 3-{4-[6-(4-Methyl-[1,4]diazepane-1-carbonyl)-pyridin-3-yl]-thiazol-2-ylamino}-4-isopropoxy-benzenesulfonamide.TFA] |
| 0.16 µM | 0.13 µM | 0.09 µM | CC(C)Oc1ccc(S(N)(=O)=O)cc1Nc1nc(-c2ccc(C(=O)NCCN(C)C)nc2)cs1 [Example 50, 5-[2-(2-Isopropoxy-5-sulfamoyl-phenylamino)-thiazol-4-yl]-pyridine-2-carboxylic acid (2-dimethylamino-ethyl)-amide.TFA] |
| 1.8 µM | 2.7 µM | 1.2 µM | CC(C)Oc1ccc(S(N)(=O)=O)cc1Nc1nc(-c2ccc(C(=O)N3CCN(C(C)C)CC3)nc2)cs1 [Example 51, 4-Isopropoxy-3-{4-[6-(4-isopropyl-piperazine-1-carbonyl)-pyridin-3-yl]-thiazol-2-ylamino}-benzenesulfonamide.TFA] |
| 1 µM | 2.2 µM | 1.2 µM | CCN1CCCN(C(=O)c2ccc(-c3csc(Nc4cc(S(N)(=O)=O)ccc4OC(C)C)n3)cn2)CC1 [Example 52, 3-{4-[6-(4-Ethyl-[1,4]diazepane-1-carbonyl)-pyridin-3-yl]-thiazol-2-ylamino}-4-isopropoxy-benzenesulfonamide.TFA] |
| 0.97 µM | 2.3 µM | 0.89 µM | CC(C)Oc1ccc(S(N)(=O)=O)cc1Nc1nc(-c2ccc(C(=O)N(C)CCN(C)C)nc2)cs1 [Example 53, 5-[2-(2-Isopropoxy-5-sulfamoyl-phenylamino)-thiazol-4-yl]-pyridine-2-carboxylic acid (2-dimethylamino-ethyl)-methyl-amide.TFA] |
| 3.7 µM | 2.5 µM | 0.96 µM | CC(C)Oc1ccc(S(N)(=O)=O)cc1Nc1nc(-c2ccc(C(=O)N3CCN(C(=O)OC(C)(C)C)CC3)nc2)cs1 [Example 54, 4-{5-[2-(2-Isopropoxy-5-sulfamoyl-phenylamino)-thiazol-4-yl]-pyridine-2-carbonyl}-piperazine-1-carboxylic acid tert-butyl ester.TFA] |
| 0.42 µM | 2.6 µM | 0.81 µM | CC(C)Oc1ccc(S(N)(=O)=O)cc1Nc1nc(-c2ccc(C(=O)NC3CCN(C)CC3)nc2)cs1 [Example 55, 5-[2-(2-Isopropoxy-5-sulfamoyl-phenylamino)-thiazol-4-yl]-pyridine-2-carboxylic acid (1-methyl-piperidin-4-yl)-amide.TFA] |
| 0.39 µM | 1.5 µM | 0.64 µM | CC(C)Oc1ccc(S(N)(=O)=O)cc1Nc1nc(-c2ccc(CO)nc2)cs1 [Example 56, 3-[4-(6-Hydroxymethyl-pyridin-3-yl)-thiazol-2-ylamino]-4-isopropoxy-benzenesulfonamide] |
